Like-named read-outs stand apart in the source and are kept apart here.
What was measured:
Format in all cases: in vivo
[1] = test system: diamondback moths (Plutella xylostella); assay: Insecticidal test against diamondback moth (leaf dip); details: foliar, 144 h, read-out: insecticidal rate (rate of dead insects)
Description: (§1) A 10% emulsifiable concentrate (depending on the compounds, 25% wettable powder was applied for the test) of the compound of the present invention was diluted with water containing a spreading agent to prepare a chemical solution with a concentration of 100 ppm. To the chemical solution was dipped leaves of Chinese olive for about 10 seconds, and after air-drying, they were placed in a laboratory dish, then, 10 diamondback moths (Plutella xylostella) with second instar larvae per the dish were released therein, and the dish was covered with a lid having holes and contained at a thermostat chamber at 25° C. A number of dead insect(s) after 6 days was counted and a rate of dead insects was calculated in the same manner as in Test Example 1. Incidentally, the test was carried out with two districts.

[2] = test system: Common cutworms (Spodoptera litura); assay: Insecticidal test against common cutworm (leaf dip); details: foliar, 144 h, read-out: insecticidal rate (rate of dead insects)
Description: as §1, with “10 Common cutworms (Spodoptera litura)” for “10 diamondback moths (Plutella xylostella)”, “calculated by” for “calculated in”, “the following calculation formula.” for “the same manner as in Test Example 1.”, “districts. Rate of dead insects (%)=(Number of dead insects/Number of released insects)×100” for “districts.”

[3] = test system: Common cutworm (Spodoptera litura); assay: Insecticidal test (comparative test) against common cutworm, third instar larvae; details: leaf dip, counted after 6 days
Description: 10% emulsifiable concentrates of the compound of the present invention and comparative compound were diluted with water containing a spreading agent to prepare chemical solutions with a predetermined concentration. To the chemical solutions was dipped leaves of Chinese olive for about 10 seconds, and after air-drying, they were placed in a laboratory dish, then, 7 Common cutworm (Spodoptera litura) with third instar larvae per the dish were released therein, and the dish was covered with a lid having holes and contained at a thermostat chamber at 25° C. Artificial feed (1 cm^3) was added after 2 days, a number of dead insect(s) was counted after 6 days and a rate of dead insects was calculated by the following calculation formula. Incidentally, the test was carried out with two districts. Rate of dead insects (%)=(Number of dead insects/Number of released insects)×100

[4] = 100 ppm, leaf dip, second instar larvae, after 6 days, 25° C.

`Cc1cc(C(O)(c2ccc3c(c2)OC(F)(F)C(F)(F)O3)C(F)(F)F)ccc1NC(=O)c1cccc(I)c1C(=O)NC(C)C` (stereo not shown) [1-028, N^1-[4-[2,2,2-trifluoro-1-hydroxy-1-(2,2,3,3-tetrafluoro-1,4-dioxa-2,3-dihydronaphthalen-6-yl)ethyl]-2-methylphenyl]-3-iodo-N^2-isopropylphthalic diamide] showed a pest or weed control at 100 ppm [1] of 100% and a pest or weed control at 100 ppm [2] of at least 80%.
With `CSCC(C)NC(=O)c1c(I)cccc1C(=O)Nc1ccc(C(O)(c2ccc(Cl)cc2)C(F)(F)F)cc1C` (stereo not shown) [1-036] the “Rate of dead insects” value ([3]; concentration 0.1 ppm) was 14.3%, the “Rate of dead insects” value ([3]; concentration 0.3 ppm) was 28.6% and the “Rate of dead insects” value ([3]; concentration 1 ppm) was 85.7%. For the same compound, the “Rate of dead insects” value ([3]; concentration 3 ppm) was 100%, the “Rate of dead insects” value ([3]; concentration 10 ppm) was 100% and the “Rate of dead insects” value ([3]; concentration 33 ppm) was 100%.
`CSCC(C)(C)NC(=O)c1c(I)cccc1C(=O)Nc1ccc(C(O)(c2ccc(Cl)cc2)C(F)(F)F)cc1C` (stereo not shown) [1-084] was tested, and the “Rate of dead insects” value ([3]; concentration 0.3 ppm) was 0%, the “Rate of dead insects” value ([3]; concentration 1 ppm) was 21.3% and the “Rate of dead insects” value ([3]; concentration 3 ppm) was 71.4%. The “Rate of dead insects” value ([3]; concentration 10 ppm) was 100% and the “Rate of dead insects” value ([3]; concentration 33 ppm) was 100%.
`Cc1cc(C(O)(c2ccc(Cl)cc2)C(F)(F)F)ccc1NC(=O)c1cccc(I)c1C(=O)NC(C)(C)CS(C)(=O)=O` (stereo not shown) [1-087] was tested, and the “Rate of dead insects” value ([3]; concentration 0.1 ppm) was 0%, the “Rate of dead insects” value ([3]; concentration 0.3 ppm) was 21.3% and the “Rate of dead insects” value ([3]; concentration 1 ppm) was 71.4%. For the same compound, the “Rate of dead insects” value ([3]; concentration 3 ppm) was 100%, the “Rate of dead insects” value ([3]; concentration 10 ppm) was 100% and the “Rate of dead insects” value ([3]; concentration 33 ppm) was 100%.
For `CSCC(C)(C)NC(=O)c1c(I)cccc1C(=O)Nc1ccc(C(O)c2ccc(Cl)cc2)cc1C` (stereo not shown) [Comparative compound A, reference compound], the “Rate of dead insects” value ([3]; concentration 33 ppm) was 0%.
`Cc1cc(C(O)(c2ccc(OC(F)(F)F)cc2)C(F)(F)F)ccc1NC(=O)c1cccc(I)c1C(=O)NC(C)C` (stereo not shown) [Compound No. 1-009, N^1-[4-[2,2,2-trifluoro-1-hydroxy-1-(4-trifluoromethoxyphenyl)ethyl]-2-methylphenyl]-3-iodo-N^2-isopropylphthalic diamide] gave a pest or weed control at 100 ppm [1] of 100% and a pest or weed control at 100 ppm [2] of at least 80%.
Work on `Cc1cc(C(O)(c2ccc(OS(C)(=O)=O)cc2)C(F)(F)F)ccc1NC(=O)c1cccc(I)c1C(=O)NC(C)C` (stereo not shown) [Compound No. 1-015, N^1-[4-[2,2,2-trifluoro-1-hydroxy-1-(4-methanesulfonyloxyphenyl)ethyl]-2-methylphenyl]-3-iodo-N^2-isopropylphthalic diamide] yielded a pest or weed control at 100 ppm [1] of 100% and a pest or weed control at 100 ppm [2] of at least 80%.
For `Cc1cc(C(O)(COc2ccc(Cl)cc2)C(F)(F)F)ccc1NC(=O)c1cccc(I)c1C(=O)NC(C)C` (stereo not shown) [Compound No. 2-004, N^1-[4-[2-(4-chlorophenoxy)-1-hydroxy-1-trifluoromethylethyl]-2-methylphenyl]-3-iodo-N^2-isopropylphthalic diamide], the pest or weed control at 100 ppm [1, 4] was 100% and the pest or weed control at 100 ppm [2, 4] was at least 80%.
`Cc1cc(C(O)(C(F)(F)F)C(F)(F)Oc2ccc(Cl)cc2)ccc1NC(=O)c1cccc(I)c1C(=O)NC(C)C` (stereo not shown) [Compound No. 2-008, N^1-[4-[2-(4-chlorophenoxy)-2,2-difluoro-1-hydroxy-1-trifluoromethylethyl]-2-methylphenyl]-3-iodo-N^2-isopropylphthalic diamide] showed a pest or weed control at 100 ppm [1, 4] of 100% and a pest or weed control at 100 ppm [2, 4] of at least 80%.
`Cc1cc(C(O)(C=Cc2ccc(Cl)cc2)C(F)(F)F)ccc1NC(=O)c1cccc(I)c1C(=O)NC(C)C` (stereo not shown) [Compound No. 2-018, N^1-[4-[3-(4-chlorophenyl)-1-hydroxy-1-trifluoromethyl-2-propenyl]-2-methylphenyl]-3-iodo-N^2-isopropylphthalic diamide] was tested, and the pest or weed control at 100 ppm [1, 4] was 100% and the pest or weed control at 100 ppm [2, 4] was at least 80%.
`COC(c1ccc(Cl)cc1)(c1ccc(NC(=O)c2cccc(I)c2C(=O)NC(C)C)c(C)c1)C(F)(F)F` (stereo not shown) [Compound No. 3-002, N^1-[4-[1-(4-chlorophenyl)-2,2,2-trifluoro-1-methoxyethyl]-2-methylphenyl]-3-iodo-N^2-isopropylphthalic diamide] was tested, and the pest or weed control at 100 ppm [1] was 100% and the pest or weed control at 100 ppm [2] was at least 80%.
`Cc1cc2c(cc1NC(=O)c1cccc(I)c1C(=O)NC(C)C)OC(F)(F)C2(O)C(F)(F)F` (stereo not shown) [Compound No. 4-002, N^1-(2,2-difluoro-3-hydroxy-5-methyl-3-trifluoromethyl-2,3-dihydrobenzofuran-6-yl)-3-iodo-N^2-isopropylphthalic diamide] gave a pest or weed control at 100 ppm [1, 4] of 100% and a pest or weed control at 100 ppm [2, 4] of at least 80%.
